Results as given in patent US20250107525A1, “CARBOXYLIC ACID-DERIVED KETO-DIESTERS AND USES THEREOF” (The United States of America, as represented by the …, priority 2023, published 2025).
Entries after “also recorded” stand apart in the source; their conditions may differ.

How the values were obtained:
[1] = system: monocot bentgrass (Agrostis stolonifera); assay: primary bioassay, bentgrass seeds exposed to 1000 μM solution for 7 days; format: in vivo; conditions: for growth of bentgrass seedlings: compared to negative controls H2O or 10% acetone
Method: The phytotoxic activity of compounds belonging to formula (III), (V), or (VII) classes were evaluated in a primary bioassay. The synthetic triketone herbicides mesotrione and sulcotrione were used as positive controls. The seeds of monocot bentgrass (Agrostis stolonifera) and dicot Arabidopsis (Arabidopsis thaliana) were exposed for 7 days to 1000 μM solution of each chemical. […] Chlorosis of treated seedlings is a common symptom of HPPD enzyme inhibition, and the obtained results are an initial confirmation this mode of action for these new compounds. Next, a detailed assessment of phytotoxic activity of potential herbicide candidates was accomplished by measurement a growth of duckweed (Lemna paucicostata) frond surface (Table 1). Mesotrione and sulcotrione were used as positive controls.
(§1) The synthetic triketone herbicides mesotrione and sulcotrione were used as positive controls. For comparative purposes, water as well as 10% acetone in water were used as negative controls. The seeds of monocot bentgrass (Agrostis stolonifera) and dicot Arabidopsis (Arabidopsis thaliana) were exposed for 7 days to 1000 μM solution of each chemical. […] Chlorosis of treated seedlings is a common symptom of a typical HPPD enzyme inhibition, and the obtained results are an initial confirmation this mode of action for these new compounds.
The synthetic triketone herbicides mesotrione and sulcotrione were used as positive controls. For comparative purposes, water as well as 10% acetone in water were used as negative controls. The seeds of monocot bentgrass (Agrostis stolonifera) and dicot Arabidopsis (Arabidopsis thaliana) were exposed for 7 days to 1000 μM solution of each chemical.
as §1, with “The phytotoxic activity of compounds belonging to formula (VII) (compounds (VII-1) and (VII-2)) was evaluated in a primary bioassay. The synthetic” for “The synthetic”

[2] = system: duckweed (Lemna paucicostata); assay: secondary bioassay, dose-response curve based on growth rate of duckweed frond surface; format: in vivo; conditions: for IC50: Lemna aequinoctialis, growth rate of duckweed (Lemna paucicostata) frond surface, read-out: IC50 (μM), herbicidal activity in a secondary bioassay; for activity compared with commercial herbicides bentazon, clomazone, glyphosate, glufosinate, asulam, chloropropham and EPTC in the same bioassay: comparison with data of Michel, A., et al. (2004)
Method: The phytotoxic activity of compounds belonging to formula (III), (V), or (VII) classes were evaluated in a primary bioassay. […] The seeds of monocot bentgrass (Agrostis stolonifera) and dicot Arabidopsis (Arabidopsis thaliana) were exposed for 7 days to 1000 μM solution of each chemical. […] Next, a detailed assessment of phytotoxic activity of potential herbicide candidates was accomplished by measurement a growth of duckweed (Lemna paucicostata) frond surface (Table 1).
Next, a detailed assessment of the phytotoxic activity of the potential herbicide candidates was done by calculating dose-response curve base on growth rate of duckweed (Lemna paucicostata) frond surface.
Next, a detailed assessment of the phytotoxic activity of the potential herbicide candidates was done by calculating dose-response curves base on growth rate of duckweed (Lemna paucicostata) frond surface.
Next, a detailed assessment of the phytotoxic activity of the potential herbicide candidates was done by calculating dose-response curve based on the growth rate of duckweed (Lemna paucicostata) frond surface.

Compound | chlorosis of bentgrass seedlings [1] | growth of bentgrass seedlings [1] | IC50 [2] | activity compared with commercial herbicides bentazon, clomazone, glyphosate, glufosinate, asulam, chloropropham and EPTC in the same bioassay [2]
CC1(C)OC(=O)C(=C(O)c2ccc(S(C)(=O)=O)cc2Cl)C(=O)O1 [III-1, 5-(2-chloro-4-(methylsulfonyl)benzoyl)-2,2-dimethyl-1,3-dioxane-4,6-dione] | did not develop chlorosis | growth of some of them was reduced |  | 
CC1(C)OC(=O)C(=C(O)c2ccc(C(F)(F)F)cc2[N+](=O)[O-])C(=O)O1 [III-2, 2,2-dimethyl-5-(2-nitro-4-(trifluoromethyl)benzoyl)-1,3-dioxane-4,6-dione] | most of them were chlorotic; also recorded: most of them developed symptoms of chlorosis | significantly impacted growth; also recorded: significantly reduced growth | 1.9 µM | more active
CC1(C)OC(=O)C(=C(O)c2ccc(S(C)(=O)=O)cc2[N+](=O)[O-])C(=O)O1 [III-3, 2,2-dimethyl-5-(4-(methylsulfonyl)-2-nitrobenzoyl)-1,3-dioxane-4,6-dione] | did not develop chlorosis | growth of some of them was reduced |  | 
CC1(C)OC(=O)C(=C(O)CCc2ccccc2)C(=O)O1 [III-4, 2,2-dimethyl-5-(3-phenylpropanoyl)-1,3-dioxane-4,6-dione] |  |  | 13.2 µM | 
O=C1OC2(CCCC2)OC(=O)C1=C(O)CCc1ccccc1 [III-5, 8-(3-phenylpropanoyl)-6, 10-dioxaspiro [4.5] decane-7,9-dione] |  |  | 17.9 µM | 
CCCC1(CCC)OC(=O)C(=C(O)CCc2ccccc2)C(=O)O1 [III-6, 5-(3-phenylpropanoyl)-2,2-dipropyl-1,3-dioxane-4,6-dione] |  |  | 2.6 µM | more active
CC(C)CC(O)=C1C(=O)OC(C)(C)OC1=O [VII-1, 2,2-dimethyl-5-(3-methylbutanoyl)-1,3-dioxane-4,6-dione] |  |  | 1.14 µM | 
CC(C)CC(O)=C1C(=O)OC2(CCCC2)OC1=O [VII-2, 8-(3-methylbutanoyl)-6,10-dioxaspiro [4.5] decane-7,9-dione] |  |  | 3.3 µM | 
